Test results from patent US20230085307A1, “PYRIDAZINONE COMPOUND AND HERBICIDE” (NISSAN CHEMICAL CORPORATION, priority 2019, published 2023).

Key:
[1] = tested on: barnyard grass; experiment: Test Example 3: herbicidal effect by foliage application, Wagner pot (Table 18, symbol H); assay type: in vivo, barnyard grass (Echinochloa crus-galli); conditions: 320 g/ha
Procedure, shortened: (§1)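 Plants were sown in alluvial soil held under 0.1–0.5 cm standing water and grown 14 days in a greenhouse at 25–30 °C. An emulsifiable formulation, water-diluted to the set dose, was then sprayed onto the foliage, and effects were scored three weeks later using previously defined criteria.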

[2] = tested on: Chinese sprangletop; experiment: Test Example 3: herbicidal effect by foliage application, Wagner pot (Table 18, symbol D); assay type: in vivo, chinese sprangletop (Leptochloa chinensis); conditions: 320 g/ha
Procedure, shortened: as §1

[3] = tested on: rice flat sedge; experiment: Test Example 3: herbicidal effect by foliage application, Wagner pot (Table 18, symbol E); assay type: in vivo, rice flat sedge (Cyperus iria); conditions: 320 g/ha
Procedure, shortened: as §1

[4] = tested on: southern crabgrass; experiment: Test Example 4: herbicidal effect by soil treatment (Table 19, symbol F); assay type: in vivo, southern crabgrass (Digitaria ciliaris); conditions: amount of applied herbicide 320 g/ha
Procedure, shortened: (§2)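 Three weeks of greenhouse growth at 25° C. to 30° C. followed a uniform surface spray of water-diluted emulsion at a predetermined herbicide amount. Seeds had been sown beforehand under about 1.5 cm of sterilized diluvial soil. Grading followed criteria set out in an earlier test.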

[5] = tested on: green foxtail; experiment: Test Example 4: herbicidal effect by soil treatment (Table 19, symbol G); assay type: in vivo, green foxtail (Setaria viridis); conditions: amount of applied herbicide 320 g/ha
Procedure, shortened: as §2

[6] = tested on: barnyard grass; experiment: Test Example 4: herbicidal effect by soil treatment (Table 19, symbol H); assay type: in vivo, barnyard grass (Echinochloa crus-galli); conditions: amount of applied herbicide 320 g/ha
Procedure, shortened: as §2

[7] = tested on: wild oat; experiment: Test Example 4: herbicidal effect by soil treatment (Table 19, symbol I); assay type: in vivo, wild oat (Avena fatua); conditions: amount of applied herbicide 320 g/ha
Procedure, shortened: as §2

[8] = tested on: blackgrass; experiment: Test Example 4: herbicidal effect by soil treatment (Table 19, symbol J); assay type: in vivo, blackgrass (Alopecurus myosuroides); conditions: amount of applied herbicide 320 g/ha
Procedure, shortened: as §2

[9] = tested on: Italian ryegrass; experiment: Test Example 4: herbicidal effect by soil treatment (Table 19, symbol K); assay type: in vivo, Italian ryegrass (Lolium multiflorum); conditions: amount of applied herbicide 320 g/ha
Procedure, shortened: as §2

[10] = tested on: windgrass; experiment: Test Example 4: herbicidal effect by soil treatment (Table 19, symbol L); assay type: in vivo, windgrass (Apera spica-venti); conditions: amount of applied herbicide 320 g/ha
Procedure, shortened: as §2

[11] = tested on: velvetleaf; experiment: Test Example 4: herbicidal effect by soil treatment (Table 19, symbol M); assay type: in vivo, velvetleaf (Abutilon theophrasti); conditions: amount of applied herbicide 320 g/ha
Procedure, shortened: as §2

[12] = tested on: redroot pigweed; experiment: Test Example 4: herbicidal effect by soil treatment (Table 19, symbol N); assay type: in vivo, redroot pigweed (Amaranthus retroflexus); conditions: amount of applied herbicide 320 g/ha
Procedure, shortened: as §2

[13] = tested on: lambsquarters; experiment: Test Example 4: herbicidal effect by soil treatment (Table 19, symbol O); assay type: in vivo, lambsquarters (Chenopodium album); conditions: amount of applied herbicide 320 g/ha
Procedure, shortened: as §2

[14] = tested on: chickweed; experiment: Test Example 4: herbicidal effect by soil treatment (Table 19, symbol P); assay type: in vivo, common chickweed (Stellaria media); conditions: amount of applied herbicide 320 g/ha
Procedure, shortened: as §2

[15] = tested on: persian speedwell; experiment: Test Example 4: herbicidal effect by soil treatment (Table 19, symbol R); assay type: in vivo, Persian speedwell (Veronica persica); conditions: amount of applied herbicide 320 g/ha
Procedure, shortened: as §2

[16] = tested on: southern crabgrass; experiment: Test Example 5: herbicidal effect by foliage application, plastic box (Table 20, symbol F); assay type: in vivo, southern crabgrass (Digitaria ciliaris); conditions: foliage application, 320 g/ha, three weeks after application
Procedure, shortened: (§3)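 Plants sown in sterilized diluvial soil and grown 14 days in a greenhouse at 25° C to 30° C, then sprayed on the foliage with the compound's emulsion diluted in water to a predetermined herbicide amount. Injury to weeds and crops scored three weeks after application on a visual rating scale.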

[17] = tested on: green foxtail; experiment: Test Example 5: herbicidal effect by foliage application, plastic box (Table 20, symbol G); assay type: in vivo, green foxtail (Setaria viridis); conditions: foliage application, 320 g/ha, three weeks after application
Procedure, shortened: as §3

[18] = tested on: barnyard grass; experiment: Test Example 5: herbicidal effect by foliage application, plastic box (Table 20, symbol H); assay type: in vivo, barnyard grass (Echinochloa crus-galli); conditions: foliage application, 320 g/ha, three weeks after application
Procedure, shortened: as §3

[19] = tested on: wild oat; experiment: Test Example 5: herbicidal effect by foliage application, plastic box (Table 20, symbol I); assay type: in vivo, wild oat (Avena fatua); conditions: foliage application, 320 g/ha, three weeks after application
Procedure, shortened: as §3

[20] = tested on: blackgrass; experiment: Test Example 5: herbicidal effect by foliage application, plastic box (Table 20, symbol J); assay type: in vivo, blackgrass (Alopecurus myosuroides); conditions: foliage application, 320 g/ha, three weeks after application
Procedure, shortened: as §3

[21] = tested on: Italian ryegrass; experiment: Test Example 5: herbicidal effect by foliage application, plastic box (Table 20, symbol K); assay type: in vivo, Italian ryegrass (Lolium multiflorum); conditions: foliage application, 320 g/ha, three weeks after application
Procedure, shortened: as §3

[22] = tested on: windgrass; experiment: Test Example 5: herbicidal effect by foliage application, plastic box (Table 20, symbol L); assay type: in vivo, windgrass (Apera spica-venti); conditions: foliage application, 320 g/ha, three weeks after application
Procedure, shortened: as §3

[23] = tested on: velvetleaf; experiment: Test Example 5: herbicidal effect by foliage application, plastic box (Table 20, symbol M); assay type: in vivo, velvetleaf (Abutilon theophrasti); conditions: foliage application, 320 g/ha, three weeks after application
Procedure, shortened: as §3

[24] = tested on: redroot pigweed; experiment: Test Example 5: herbicidal effect by foliage application, plastic box (Table 20, symbol N); assay type: in vivo, redroot pigweed (Amaranthus retroflexus); conditions: foliage application, 320 g/ha, three weeks after application
Procedure, shortened: as §3

[25] = tested on: lambsquarters; experiment: Test Example 5: herbicidal effect by foliage application, plastic box (Table 20, symbol O); assay type: in vivo, lambsquarters (Chenopodium album); conditions: foliage application, 320 g/ha, three weeks after application
Procedure, shortened: as §3

[26] = tested on: chickweed; experiment: Test Example 5: herbicidal effect by foliage application, plastic box (Table 20, symbol P); assay type: in vivo, common chickweed (Stellaria media); conditions: foliage application, 320 g/ha, three weeks after application
Procedure, shortened: as §3

[27] = tested on: persian speedwell; experiment: Test Example 5: herbicidal effect by foliage application, plastic box (Table 20, symbol R); assay type: in vivo, Persian speedwell (Veronica persica); conditions: foliage application, 320 g/ha, three weeks after application
Procedure, shortened: as §3

CCCC(=O)Oc1c(C)nn(C)c(=O)c1-c1c(-c2ccc(F)cc2OC)sc2ccccc12 [1-056]
herbicidal effect on H (barnyard grass), rating 0-5 [1]: 4 (Herbicidal rate of 70% or more and less than 90%)
herbicidal effect on D (Chinese sprangletop), rating 0-5 [2]: 2 (Herbicidal rate of 20% or more and less than 40%)
herbicidal effect on E (rice flat sedge), rating 0-5 [3]: 5 (Herbicidal rate of 90% or more (almost completely withered))
herbicidal effect rating, F: southern crabgrass [4]: 3 (Herbicidal rate of 40% or more and less than 70%)
herbicidal effect rating, G: green foxtail [5]: 5 (Herbicidal rate of 90% or more (almost completely withered))
herbicidal effect rating, H: barnyard grass [6]: 3 (Herbicidal rate of 40% or more and less than 70%)
herbicidal effect rating, I: wild oat [7]: 3 (Herbicidal rate of 40% or more and less than 70%)
herbicidal effect rating, J: blackgrass [8]: 1 (Herbicidal rate of 5% or more and less than 20%)
herbicidal effect rating, K: Italian ryegrass [9]: 0 (Herbicidal rate of 5% or less (almost no effect))
herbicidal effect rating, L: windgrass [10]: 5 (Herbicidal rate of 90% or more (almost completely withered))
herbicidal effect rating, M: velvetleaf [11]: 0 (Herbicidal rate of 5% or less (almost no effect))
herbicidal effect rating, N: redroot pigweed [12]: 5 (Herbicidal rate of 90% or more (almost completely withered))
herbicidal effect rating, O: lambsquarters [13]: 3 (Herbicidal rate of 40% or more and less than 70%)
herbicidal effect rating, P: chickweed [14]: 3 (Herbicidal rate of 40% or more and less than 70%)
herbicidal effect rating, R: persian speedwell [15]: 4 (Herbicidal rate of 70% or more and less than 90%)
herbicidal effect grade, F: southern crabgrass [16]: 5 (Herbicidal rate of 90% or more (almost completely withered))
herbicidal effect grade, G: green foxtail [17]: 5 (Herbicidal rate of 90% or more (almost completely withered))
herbicidal effect grade, H: barnyard grass [18]: 4 (Herbicidal rate of 70% or more and less than 90%)
herbicidal effect grade, I: wild oat [19]: 4 (Herbicidal rate of 70% or more and less than 90%)
herbicidal effect grade, J: blackgrass [20]: 4 (Herbicidal rate of 70% or more and less than 90%)
herbicidal effect grade, K: Italian ryegrass [21]: 1 (Herbicidal rate of 5% or more and less than 20%)
herbicidal effect grade, L: windgrass [22]: 5 (Herbicidal rate of 90% or more (almost completely withered))
herbicidal effect grade, M: velvetleaf [23]: 4 (Herbicidal rate of 70% or more and less than 90%)
herbicidal effect grade, N: redroot pigweed [24]: 3 (Herbicidal rate of 40% or more and less than 70%)
herbicidal effect grade, O: lambsquarters [25]: 2 (Herbicidal rate of 20% or more and less than 40%)
herbicidal effect grade, P: chickweed [26]: 5 (Herbicidal rate of 90% or more (almost completely withered))
herbicidal effect grade, R: persian speedwell [27]: 3 (Herbicidal rate of 40% or more and less than 70%)
